Data taken from patent US9814709B2, “Bruton's tyrosine kinase inhibitor” (HEFEI INSTITUTES OF PHYSICAL SCIENCE, CHINESE ACADEMY OF …, priority 2014, dated 2017).

Tests used:
[1] = test system: PLCγ2Y1217 phosphorylation; test: Phosphorylation of PLCγ2 Y1217 in anti-IgM stimulated Ramos cells; assay type: cell-based; conditions: Homo sapiens, 4 hrs treatment, anti-IgM 10 min, read-out: EC50, inhibition of phosphorylation of PLCγ2Y1217
Experimental: (§1) We further characterized the properties of the compounds by assaying a number of cellular biochemical and functional endpoints. In particular, we assessed the selectivity of Compound 1 for inhibition of Btk versus the closely related protein kinases S6K, AKT, ErK, JAK3, and STAT5. Ramos cells (human B cells, purchased from ATCC) were treated with different concentrations of 10 nM, 100 nM, 1000 nM of the compounds of formula (I) for 4 hrs, followed by stimulation with anti-IgM for 10 min, and then the samples were harvested. We determined the effect of compounds on phosphorylation of BTKY223, PLCγ1Y783, PLCγ2Y759, PLCγ2Y1217, AKTT308, Erk1/2T202/204, JAK3 T980/981, STAT5 T694, mTORC1T389, MNK2 (FIG. 1).

[2] = molecular target: T1, EGFR (T790M/L858R) (Homo sapiens, UniProt P00533, L858R/T790M); test: In vitro enzymatic activity (ADP-Glo); assay type: biochemical; conditions: 4 hrs preincubation, 10 μM ATP
T1 construct: The intracellular segment (699-1068) region of EGFR was cloned into the insect expression vector pAcG2T; GST; made in house; host or cells: SF9 insect cells (baculovirus)
Experimental: (§2) In the experimental assay of in vitro enzymatic activity, the IC50 values of Compound 1 and Compound 19 on different kinases including BTK, EGFR (WT), EGFR/T790M, EGFR L858R/T790M, JAK1, JAK2, and JAK3 were determined. The intracellular segment (699-1068) region of EGFR was cloned into the insect expression vector pAcG2T, and was protein expressed by using an insect expression system, BaculoGold™ Baculovirus Expression System (BD Pharmingen), with GST tag. The mutations of T790M and L858R sites were performed simultaneously to give T790M single mutant vector and T790M/L858R double mutant vector of EGFR, respectively. The established vectors were transfected into SF9 packaging viruses, so as to infect the SF9-expressed proteins with the viruses; JAK1 and JAK2 were purchased from Life Technologies (US) and Abcam (US), respectively; JAK3 and BTK were purchased from Progema (US).
(§3) BTK protein kinase 9 μL (concentration of 1.5 ng/μL), JAK1, JAK2, JAK3 protein kinases 9 μL (concentration of 3 ng/μL, 3 ng/μL, 1.5 ng/μL), purified EGFR (WT), EGFR (T790M), EGFR (T790M/L858R) protein kinases 9 μL (all with concentration of 6 ng/μL) were respectively used, and each was reacted with three-fold gradient dilution of pharmaceutical Compound 1 and Compound 19 (final concentrations of the agents were 10 μM, 3 μM, 1 μM, 0.3 μM, 0.1 μM, 0.03 μM, 0.01 μM, 0.003 μM), respectively, at room temperature for 4 hrs;
(§4) 2 μL of ATP and 3 μL of substrate, Poly(4:1 Glu, Tyr)Peptide (Promega, US), were added (final concentrations are 10 μM and 0.2 μg/μL, respectively), and reacted at 37° C. for 1 hr;
(§5) 5 μL of reacted kinase solution was added into 5 μL of ADP-Glo™ (Promega, US) and reacted at room temperature for 40 min, the kinase reaction was stopped and the remained ATP was consumed;
(§6) 10 μL of kinase detection reagent was added to transfer ADP into ATP, and the newly obtained ATP was detected by using coupled luciferase/fluorescein reaction, then the IC50 values were calculated by using a plotting method based on the Envision reading.

[3] = molecular target: T2, JAK3 (Homo sapiens, UniProt P52333); test: In vitro enzymatic activity (ADP-Glo); assay type: biochemical; conditions: 4 hrs preincubation, 10 μM ATP
T2 construct: purchased Progema (US) [sic; Promega]
Experimental: as §2, §3, §4, §5, §6

[4] = molecular target: T3, EGFR (WT) (Homo sapiens, UniProt P00533); test: In vitro enzymatic activity (ADP-Glo); assay type: biochemical; conditions: 4 hrs preincubation, 10 μM ATP
T3 construct: The intracellular segment (699-1068) region of EGFR was cloned into the insect expression vector pAcG2T; GST; made in house; host or cells: SF9 insect cells (baculovirus)
Experimental: as §2, §3, §4, §5, §6

[5] = molecular target: T4, EGFR (T790M) (Homo sapiens, UniProt P00533, T790M); test: In vitro enzymatic activity (ADP-Glo); assay type: biochemical; conditions: 4 hrs preincubation, 10 μM ATP
T4 construct: The intracellular segment (699-1068) region of EGFR was cloned into the insect expression vector pAcG2T; GST; made in house; host or cells: SF9 insect cells (baculovirus)
Experimental: as §2, §3, §4, §5, §6

[6] = molecular target: BTK (Homo sapiens, UniProt Q06187); test: In vitro enzymatic activity (ADP-Glo); assay type: biochemical; set-up: purchased Progema (US) [sic; Promega]; conditions: 4 hrs preincubation, 10 μM ATP
Experimental: as §2, with “(US). […]” for “(US).”
as §6

[7] = molecular target: T5, tyrosine Y223 on Btk (Homo sapiens, UniProt Q06187); test: Phosphorylation of BTK Y223 in anti-IgM stimulated Ramos cells; assay type: cell-based; conditions: 4 hrs treatment, anti-IgM 10 min, read-out: EC50, inhibition of phosphorylation of tyrosine Y223 on Btk
T5 construct: host or cells: Ramos cells
Experimental: as §1

T2 sequence (P52333 whole entry): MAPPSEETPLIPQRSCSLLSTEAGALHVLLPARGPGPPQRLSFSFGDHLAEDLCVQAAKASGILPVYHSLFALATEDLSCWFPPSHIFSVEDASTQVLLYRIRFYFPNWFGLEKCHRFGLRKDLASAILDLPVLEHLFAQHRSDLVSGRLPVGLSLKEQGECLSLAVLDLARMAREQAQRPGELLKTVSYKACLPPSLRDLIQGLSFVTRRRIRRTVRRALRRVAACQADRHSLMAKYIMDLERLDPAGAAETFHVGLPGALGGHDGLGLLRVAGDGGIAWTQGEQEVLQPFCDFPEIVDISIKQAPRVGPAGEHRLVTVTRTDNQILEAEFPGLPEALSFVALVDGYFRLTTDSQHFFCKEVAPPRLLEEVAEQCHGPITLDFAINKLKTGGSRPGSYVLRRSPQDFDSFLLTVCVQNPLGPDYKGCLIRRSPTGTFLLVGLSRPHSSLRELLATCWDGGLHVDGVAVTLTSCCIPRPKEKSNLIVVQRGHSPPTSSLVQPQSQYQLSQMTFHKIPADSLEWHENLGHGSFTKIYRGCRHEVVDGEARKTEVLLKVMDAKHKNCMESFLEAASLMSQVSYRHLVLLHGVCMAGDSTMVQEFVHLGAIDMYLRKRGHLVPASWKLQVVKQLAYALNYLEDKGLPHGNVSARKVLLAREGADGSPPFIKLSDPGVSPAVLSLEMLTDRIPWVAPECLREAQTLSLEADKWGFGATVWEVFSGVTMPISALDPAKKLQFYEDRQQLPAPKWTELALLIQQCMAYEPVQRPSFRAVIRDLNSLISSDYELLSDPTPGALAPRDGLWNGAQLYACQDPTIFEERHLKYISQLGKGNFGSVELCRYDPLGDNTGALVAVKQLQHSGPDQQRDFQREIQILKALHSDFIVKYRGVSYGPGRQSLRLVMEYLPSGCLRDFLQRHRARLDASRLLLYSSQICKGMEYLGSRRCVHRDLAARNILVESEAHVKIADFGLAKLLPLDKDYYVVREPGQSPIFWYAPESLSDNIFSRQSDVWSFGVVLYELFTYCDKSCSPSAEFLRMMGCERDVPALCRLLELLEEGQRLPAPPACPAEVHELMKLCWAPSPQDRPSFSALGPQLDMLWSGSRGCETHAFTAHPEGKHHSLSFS
BTK, sequence (Q06187 whole entry): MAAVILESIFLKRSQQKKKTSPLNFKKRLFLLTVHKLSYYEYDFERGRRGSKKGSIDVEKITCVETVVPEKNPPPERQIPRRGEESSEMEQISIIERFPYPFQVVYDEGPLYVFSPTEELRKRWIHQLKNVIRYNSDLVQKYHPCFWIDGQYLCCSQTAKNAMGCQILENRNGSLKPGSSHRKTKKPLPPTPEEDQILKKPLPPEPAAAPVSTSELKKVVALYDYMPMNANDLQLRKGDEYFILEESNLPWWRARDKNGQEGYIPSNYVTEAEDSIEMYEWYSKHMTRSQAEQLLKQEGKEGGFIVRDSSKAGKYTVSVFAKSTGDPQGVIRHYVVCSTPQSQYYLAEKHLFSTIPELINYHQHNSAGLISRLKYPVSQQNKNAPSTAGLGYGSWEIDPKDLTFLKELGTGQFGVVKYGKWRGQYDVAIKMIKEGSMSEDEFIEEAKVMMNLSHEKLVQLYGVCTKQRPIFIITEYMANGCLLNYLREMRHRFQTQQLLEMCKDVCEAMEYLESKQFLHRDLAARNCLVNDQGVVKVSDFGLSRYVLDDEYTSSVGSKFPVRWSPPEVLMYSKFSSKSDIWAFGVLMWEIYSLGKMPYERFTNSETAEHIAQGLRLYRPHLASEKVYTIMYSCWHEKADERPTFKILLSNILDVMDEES
T5 sequence (Q06187 whole entry): as above
T1 sequence (P00533 699-1068 T790M/L858R): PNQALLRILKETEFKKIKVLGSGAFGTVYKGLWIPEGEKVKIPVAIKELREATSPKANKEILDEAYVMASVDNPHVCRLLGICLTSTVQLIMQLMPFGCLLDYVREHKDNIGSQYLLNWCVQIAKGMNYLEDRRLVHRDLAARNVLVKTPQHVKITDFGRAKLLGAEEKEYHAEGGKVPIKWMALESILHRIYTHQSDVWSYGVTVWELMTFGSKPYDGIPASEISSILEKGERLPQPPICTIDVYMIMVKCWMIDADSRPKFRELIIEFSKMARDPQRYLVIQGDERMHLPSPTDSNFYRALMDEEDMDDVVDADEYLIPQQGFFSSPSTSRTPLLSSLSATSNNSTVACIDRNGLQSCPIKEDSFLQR
T3 sequence (P00533 699-1068): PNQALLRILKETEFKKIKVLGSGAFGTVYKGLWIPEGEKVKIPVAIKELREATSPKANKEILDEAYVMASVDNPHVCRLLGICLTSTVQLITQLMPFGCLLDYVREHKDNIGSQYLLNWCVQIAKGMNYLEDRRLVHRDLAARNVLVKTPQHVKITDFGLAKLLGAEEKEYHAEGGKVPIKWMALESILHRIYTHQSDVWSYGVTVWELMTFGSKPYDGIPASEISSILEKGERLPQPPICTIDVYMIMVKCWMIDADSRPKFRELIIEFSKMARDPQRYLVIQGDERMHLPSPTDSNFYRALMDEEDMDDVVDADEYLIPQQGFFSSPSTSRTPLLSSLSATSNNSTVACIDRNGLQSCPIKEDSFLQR
T4 sequence (P00533 699-1068 T790M): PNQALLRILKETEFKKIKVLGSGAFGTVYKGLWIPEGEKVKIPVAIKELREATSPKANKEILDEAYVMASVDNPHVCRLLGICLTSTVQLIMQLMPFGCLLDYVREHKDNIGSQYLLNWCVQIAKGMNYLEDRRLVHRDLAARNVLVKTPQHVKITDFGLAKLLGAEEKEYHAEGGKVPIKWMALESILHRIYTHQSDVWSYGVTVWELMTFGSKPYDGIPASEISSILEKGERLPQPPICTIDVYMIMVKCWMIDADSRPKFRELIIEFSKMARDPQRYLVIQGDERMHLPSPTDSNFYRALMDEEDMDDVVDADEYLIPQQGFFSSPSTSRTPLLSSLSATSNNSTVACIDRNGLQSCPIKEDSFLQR

## C=CC(=O)Nc1cc(-n2c(=O)ccc3cnc4ccc(-n5cccn5)cc4c32)ccc1C [Compound 1, N-(2-methyl-5-(2-oxo-9-(1H-pyrazol-1-yl)benzo[H][1,6]naphthyridin-1(2H)-yl)phenyl)acrylamide]
[1]
  EC50: 360 nM
[2]
  IC50: 1340 nM
[3]
  IC50: 169 nM
[4]
  IC50: 2450 nM
[5]
  IC50: 5500 nM
[6]
  IC50: 75.6 nM
[7]
  EC50: 217 nM
